Laboratory results reported in patent US10201610B2, “Interference peptides and use thereof” (The University of Western Australia, priority 2014, dated 2019).
Where two headings read alike, the source gives them in different places. Blank lines part the entries; values can stand above or below the molecule they belong to. Ends that are not written are not given here.

What was measured:
SUM149PT cells = assay: cells; assay type: cell-based, human; settings: for activity / IC50 as compared with the wt iPep624: Cell Titer Glo
Source text: The EN1-iPeps and iPep controls were first tested in SUM149PT cells carrying high EN1 expression. Cells were first treated with a full-length 29-mer peptide (iPep624) comprising the N-terminal, less conserved amino acid sequences, the hexamotif, and the C-terminal tail. As a control, the inventors generated the iPep624ΔHEX in which the hexamotif was mutated from the wild type (wt) WPAWVY (SEQ ID NO: 13) to the GAAGAG (SEQ ID NO: 15) sequence. These mutations were expected to dramatically abolish the activity of the peptide. Both peptides were included in the culture medium of the basal cancer cells in increasing (0-100 μM) concentrations and incubated for 8 hours at 37° C. Treated cells were first analyzed using the Cell Titer Glo assay, which monitors metabolic viability. […] This calculated value of IC50 is in the range of concentrations observed with other peptides delivered with CPPs.
(§1) All peptides were synthetized at the UNC High-Throughput Peptide Synthesis and Array Facility at UNC. Taxol, Rotenone and Halofuginone (Sigma-Aldrich, St Louis, Mo.) were dissolved in DMSO. A total of […] or 1×10^3 breast cells for peptide and drug treatment respectively, were seeded in 96-well plates. Cells were exposed for 8 hours to the peptide and 48 to 72 hours for drug treatment. The cell viability after peptide/drug treatment was assayed with the Cell Titer Glo (CTG) assay (Promega, Madison, Wis., USA).

[1] = system: SUM149PT cells overexpressing the EN1 cDNA (SUM149PT-EN1); assay: Cell Titer Glo cell viability assay in SUM149PT cells overexpressing the EN1 cDNA; assay type: cell-based, human; settings: Homo sapiens
Experimental: (§2) In the neural system it has been proposed that EN1 protects neurons from mitochondrial complex I insults. Likewise, the inventors investigated whether EN1 could play a similar role in the basal-like breast cancer cell lines. The EN1 cDNA was overexpressed in SUM149PT cells using a lentiviral vector, and the transduced cells were treated with increasing concentrations of rotenone, a mitochondrial complex I toxin, and taxol, a […].
(§3) Plasmids expressing the EN1 cDNA (Genecopoeia, vector EX-T1021-Lv07) or EN1 shRNAs (Open Biosystems, pLKO-EN1) were transfected with Gagpol-, VSVG-, and RSV-REV-coding plasmids in HEK 293T cells using Lipofectamine and Plus Reagent cationic lipids (Invitrogen, Carlsbad, Calif.) and transduction of breast cells was performed as described in Beltran, A. S. et al. Breast Cancer Res 13, R94 (2011).
as §1

[2] = system: SUM149PT control (EGFP) transduced cells (SUM149PT-Control); assay: Cell Titer Glo cell viability assay in control transduced SUM149PT cells; assay type: cell-based; settings: Homo sapiens
Experimental: as §2, §3, §1

[3] = system: panel of breast cancer cell lines; assay: Cell Titer Glo cell viability assay, whole panel of breast cancer cell lines; assay type: cell-based; settings: maximum tested concentrations (100 μM), 8 hours
Experimental: To test the specificity of the EN1-iPep in cell lines expressing EN1, the inventors delivered the iPeps into a panel of breast cancer cell lines expressing different amounts of EN1.
as §1

[4] = SUM149PT, drug treatment 72 hours, read-out: IC50 (cell viability), EN1 cDNA transduced cells
[5] = SUM149PT, drug treatment 72 hours, read-out: IC50 (cell viability), control transduced cells
[6] = Homo sapiens, SUM149PT, 48 hours drug and 8 hours 500 nM iPep682, read-out: IC50 of drug with iPep682
[7] = Homo sapiens, SUM149PT, 48 hours of treatment, read-out: IC50 of drug alone

Molecule: KKKRKVTDSQQPLVWPAAVYCTRYSDRPS (SEQ ID NO: 19) (engineered from homo sapiens) [iPep624W2ΔA, second tryptophan mutated to alanine]
activity / IC50 as compared with the wt iPep624 (SUM149PT cells; SUM149PT): retained activity but significantly increased the IC50

IC50 (SUM149PT cells; 8 h): 12.5 µM
Molecule: KKKRKVPLVWPAWVYCTRYSDRPS [iPep682]

Molecule: C=C(C)[C@H]1Cc2c(ccc3c2O[C@@H]2COc4cc(OC)c(OC)cc4[C@@H]2C3=O)O1 [rotenone]
IC50 [1, 4]: 19.6 µM | IC50 [2, 5]: 1080 nM

IC50 (SUM149PT cells; [6]): 0.049 µM | IC50 (SUM149PT cells; [7]): 7.6 µM
Molecule: CC(=O)O[C@H]1C(=O)[C@@]2(C)[C@H]([C@H](OC(=O)c3ccccc3)[C@]3(O)C[C@H](OC(=O)[C@H](O)[C@@H](NC(=O)c4ccccc4)c4ccccc4)C(C)=C1C3(C)C)[C@]1(OC(C)=O)CO[C@@H]1C[C@@H]2O [taxol, reference compound]
IC50 [1, 4]: 47.8 µM | IC50 [2, 5]: 7240 nM

Molecule: KKKRKVTDSQQPLVGAAGAGCTRYSDRPS (SEQ ID NO: 18) (engineered from homo sapiens) [iPep624ΔHEX]
cell viability (SUM149PT cells; SUM149PT, 0-100 μM peptide, 8 hours): did not show significant changes in cell viability | cell viability of any of the breast cancer cell lines [3]: did not significantly affect cell viability

Molecule: O=C(CC1NCCCC1O)Cn1cnc2cc(Br)c(Cl)cc2c1=O (centres unmarked) [halofuginone]
breast cancer cell death (SUM149PT cells; SUM149PT, single agent): induced very potent breast cancer cell death | IC50 ([1]; SUM149PT-EN1 cells, 500 nM iPep, 48 hours, read-out: IC50 of halofuginone in combination with iPep624): 0.00049 µM | IC50 ([2]; SUM149PT-Control cells, 500 nM iPep, 48 hours, read-out: IC50 of halofuginone in combination with iPep624): 0.041 nM

Molecule: KKKRKVWPAWVYCTRYSDR (SEQ ID NO: 22) (homo sapiens) [iPep697, peptide lacking all the N-terminal residues upstream of the hexamotif]
activity / IC50 as compared with the wt iPep624 (SUM149PT cells; SUM149PT): less active

IC50 (SUM149PT cells; [6]): 29.5 µM | IC50 (SUM149PT cells; [7]): 610 µM
Molecule: O=c1[nH]cc(F)c(=O)[nH]1 [5-FU, 5-Fluorouracil, reference compound]

Molecule: KKKRKVTDSQQPLVAPAWVYCTRYSDRPS (SEQ ID NO: 20) (engineered from homo sapiens) [iPep624W1ΔA, first tryptophan mutated to alanine]
activity / IC50 as compared with the wt iPep624 (SUM149PT cells; SUM149PT): retained activity but significantly increased the IC50
